Earlier results as cited in article PMC7700871 (ACS chemical biology, 2020).

Target: Abl-1 (Homo sapiens, UniProt P00519)
Conditions: cited from earlier work

Sequence of Abl-1 (P00519 whole entry, species assumed): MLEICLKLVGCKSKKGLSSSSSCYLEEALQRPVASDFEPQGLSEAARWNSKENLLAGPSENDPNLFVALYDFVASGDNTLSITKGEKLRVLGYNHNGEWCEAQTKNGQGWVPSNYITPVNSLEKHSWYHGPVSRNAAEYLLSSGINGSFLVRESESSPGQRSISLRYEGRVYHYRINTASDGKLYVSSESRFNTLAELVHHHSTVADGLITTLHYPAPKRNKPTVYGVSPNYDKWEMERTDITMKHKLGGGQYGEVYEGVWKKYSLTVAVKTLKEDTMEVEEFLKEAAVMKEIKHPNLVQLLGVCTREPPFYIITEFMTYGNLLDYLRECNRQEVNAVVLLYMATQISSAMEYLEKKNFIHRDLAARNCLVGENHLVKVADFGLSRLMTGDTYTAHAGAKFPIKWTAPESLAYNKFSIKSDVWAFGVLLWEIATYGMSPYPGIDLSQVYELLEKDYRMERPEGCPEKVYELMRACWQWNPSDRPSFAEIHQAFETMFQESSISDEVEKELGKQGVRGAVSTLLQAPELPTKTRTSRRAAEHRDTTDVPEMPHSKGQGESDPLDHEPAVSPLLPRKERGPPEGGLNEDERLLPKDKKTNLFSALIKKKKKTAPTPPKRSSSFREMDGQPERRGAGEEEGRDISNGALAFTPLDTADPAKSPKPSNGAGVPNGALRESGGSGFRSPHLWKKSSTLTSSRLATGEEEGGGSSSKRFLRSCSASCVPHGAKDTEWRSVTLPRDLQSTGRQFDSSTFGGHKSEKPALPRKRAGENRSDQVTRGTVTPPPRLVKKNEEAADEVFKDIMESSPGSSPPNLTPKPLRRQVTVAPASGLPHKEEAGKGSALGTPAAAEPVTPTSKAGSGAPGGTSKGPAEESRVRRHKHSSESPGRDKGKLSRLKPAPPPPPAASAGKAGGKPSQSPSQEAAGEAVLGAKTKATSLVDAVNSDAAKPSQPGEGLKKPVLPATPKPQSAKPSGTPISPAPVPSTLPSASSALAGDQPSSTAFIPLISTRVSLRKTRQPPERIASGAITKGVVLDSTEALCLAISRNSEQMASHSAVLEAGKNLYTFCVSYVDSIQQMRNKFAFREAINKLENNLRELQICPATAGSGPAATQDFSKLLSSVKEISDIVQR

In the case of `Cc1ccc(NC(=O)c2ccc(CN3CC[C@H](N(C)C)C3)c(C(F)(F)F)c2)cc1Nc1nccc(-c2cncnc2)n1` [bafetinib], the “global conformation of Abl-1's SH3-SH2-CD module” value is given as “promote an open global conformation”.
